Laboratory results taken from US7605168B2 (Plexxikon, Inc., priority 2004, dated 2009).
pIC50: −log10 of the molar value.

Columns and labels:
[1] = target: T1, PDE4B: catalytic domain of human PDE4B from S152-S528 (Homo sapiens, UniProt Q07343); test: PDE4 IC50 determination by Scintillation Proximity Assay (SPA), PDE4B catalytic domain; format: biochemical; details: [3H]cAMP SPA, 30 min at 30° C.
T1 construct: The catalytic domain of human PDE4B from S152-S528; His6 (N, cleaved yes); thrombin cleavage site (N, cleaved yes); made in house; host or cells: E. coli BL21 (DE3) RIL
Summary of the method: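 Human PDE4B catalytic domain (80 ng/ml) hydrolysed [3H]cAMP in 50 mM Tris pH 7.5, 8.3 mM MgCl, 1.7 mM EGTA, 0.01% BSA for 30 min at 30 °C. Reaction was stopped with yttrium silicate SPA beads in 18 mM ZnSO4, and bound [3H]AMP was counted by scintillation. IC50 came from non-linear regression.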

[2] = target: T2, PDE4B2: full-length human PDE4B2 isozyme (Homo sapiens, UniProt Q07343); test: PDE4 IC50 determination by Scintillation Proximity Assay (SPA), full-length PDE4B2; format: biochemical; details: cell lysate, [3H]cAMP SPA
T2 construct: made in house; host or cells: baculovirus infected insect cells (pFastBacHT)
Summary of the method: (§1)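 Unpurified enzyme from cell lysates (PDE4B2 2.5 μl, PDE4D5 0.083 μl of 50% glycerol stock/ml) hydrolysing [3H]cAMP in 50 mM Tris pH 7.5, 8.3 mM MgCl, 1.7 mM EGTA, 0.01% BSA, 30 min at 30 °C. Stopped with yttrium silicate SPA beads in 18 mM ZnSO4; bead-bound [3H]AMP counted. IC50 by non-linear regression.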

[3] = target: T3, PDE4D: catalytic domain S316-V692 (Homo sapiens, UniProt Q08499); test: PDE4 IC50 determination by Scintillation Proximity Assay (SPA), PDE4D catalytic domain; format: biochemical; details: [3H]cAMP SPA, 30 min at 30° C.
T3 construct: pET15S PDE4D S316-V692-X; His6 (N, cleaved yes); thrombin cleavage site (N, cleaved yes); made in house; host or cells: E. coli BL21 (DE3) RIL
Procedure: IC50s were determined by Scintillation Proximity Assay (SPA). The principle of the assay is based on the fact that cAMP, the PDE4 substrate, binds weakly to Yittrium Silicate SPA beads, whereas AMP, the product of PDE4 hydrolysis binds strongly. Thus, the extent of PDE4 hydrolysis of a sample of [^3H]cAMP can be measured because only the [^3H]AMP produced by PDE4 hydrolysis will bind to the SPA beads and produce a scintillation signal.
[…] Enzyme was stored in 50% glycerol at −20°. See Example 144.
Compounds tested (see Tables 5 for compounds and results) were 3-fold serially diluted 11 times in DMSO from a starting concentration of 4 mM or 40 μM, depending on compound potency. 1 μl of each dilution was transferred into duplicate wells of a white polystyrene 384-well assay plate (Corning #3710). In addition to the compound dilutions, each assay plate contained control wells with 1 μl of DMSO (to define 0% enzyme inhibition) or 1 μl of 200 μM roflumilast (to define 100% enzyme inhibition). Using a Beckman FX robot, 10 μl of [^3H] cAMP (Amersham TRK559) at […] in assay buffer (50 mM Tris, pH 7.5; 8.3 mM MgCl; 1.7 mM EGTA; 0.01% BSA) was transferred to each assay well. Next, 10 μl of PDE4 enzyme in assay buffer was added and the plates were shaken for 30 s. at 1000 rpm to start the cAMP hydrolysis reaction. The concentrations of enzyme used were: PDE4B, 80 ng/ml; PDE4D, 4 ng/ml; PDE4B2, 2.5 μl of 50% glycerol stock/ml; PDE4D5 0.083 μl of 50% glycerol stock/ml. Assay plates were covered and incubated for 30 min. at 30° C. Reactions were stopped by robotic addition of 10 μl of 5 mg/ml SPA beads (Amersham RPNQ0013) in 18 mM ZnSO4. The assay plates were covered with clear plastic film, centrifuged for 1 min. at 1000 RPM to settle the SPA beads, and counted using a Wallac TriLux scintillation counter. IC50's were calculated from the raw assay data by non-linear regression curve fitting using the Assay Explorer software package from MDL.

[4] = target: T4, PDE4D5: full-length human PDE4D5 isozyme (Homo sapiens, UniProt Q08499); test: PDE4 IC50 determination by Scintillation Proximity Assay (SPA), full-length PDE4D5; format: biochemical; details: cell lysate, [3H]cAMP SPA
T4 construct: made in house; host or cells: baculovirus infected insect cells (pFastBacHT)
Summary of the method: as §1

[5] = system: TNF-α release from whole blood cultures stimulated with LPS; test: IC50 by TNF alpha production upon stimulation of whole blood cultures with LPS; format: cell-based; details: human whole blood (buffy coat) culture, 100 ng/ml LPS, 4 hours; read-out: h TNFα IC50
Summary of the method: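 Human buffy coat, diluted with 7 volumes of RPMI/2.5% heat-inactivated FBS, was preincubated with compound (8-point 1:3 series) for 1 h at 37 °C. It was then stimulated with 100 ng/ml LPS (final) for 4 h. Supernatant TNF-α was measured by sandwich ELISA at 450 nm, and IC50 was set between DMSO (0%) and PDE4-inhibitor (100%) controls.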

[6] = system: TNFα levels in serum of LPS-challenged rats; test: Rat inhibition studies: serum TNFα after iv LPS challenge; format: in vivo; details: 3 mg/kg po, LPS 0.1 mg/kg iv 2 h after dosing, percent decrease in serum TNFα versus vehicle, read-out: % inhibition r TNFα
Procedure: All studies were done with male rats CD (SD) IGS BR (Crl) (Charles River, France), which were grouped in to 5 animal groups.
At the end of the acclimatization period, the non-fasted rats were weighed, individually identified on the tail with a permanent marker and administered by oral (po) or interperitoneal (ip) route with either vehicle, reference or test compound in a volume of 10 mL/kg adapted to the body weight. The animals were gathered in groups of 5 animals in a polystyrene labeled cage with sawdust covered floors. 2-hours after vehicle, reference or test substance administration, rats received an intravenous (iv) injection of 0.1 mg/kg LPS in a volume of 1 mL/kg of body weight. 2 h after LPS challenge (or as indicated in Tables 3B and 4B), blood samples were collected into tubes without anticoagulant by retro-orbital puncture under gas (isoflurane) anesthesia. Samples were allowed to clot at room temperature for 5 to 10 min then put on ice until there were prepared by centrifugation (6000×g for 3 min at 4° C.) and stored at −20° C. until use. TNFα levels were measured in serum samples in duplicate by ELISA technique according to the manufacturer's procedure (Rat TNFα kit Quantikine M (RTA00, R&D System, France)). Data are reported as percent decrease in observed TNFα levels versus TNFα levels observed for vehicle dosed animal groups.

T4 sequence (Q08499 with tags, fused parts or gaps isoform Q08499-6): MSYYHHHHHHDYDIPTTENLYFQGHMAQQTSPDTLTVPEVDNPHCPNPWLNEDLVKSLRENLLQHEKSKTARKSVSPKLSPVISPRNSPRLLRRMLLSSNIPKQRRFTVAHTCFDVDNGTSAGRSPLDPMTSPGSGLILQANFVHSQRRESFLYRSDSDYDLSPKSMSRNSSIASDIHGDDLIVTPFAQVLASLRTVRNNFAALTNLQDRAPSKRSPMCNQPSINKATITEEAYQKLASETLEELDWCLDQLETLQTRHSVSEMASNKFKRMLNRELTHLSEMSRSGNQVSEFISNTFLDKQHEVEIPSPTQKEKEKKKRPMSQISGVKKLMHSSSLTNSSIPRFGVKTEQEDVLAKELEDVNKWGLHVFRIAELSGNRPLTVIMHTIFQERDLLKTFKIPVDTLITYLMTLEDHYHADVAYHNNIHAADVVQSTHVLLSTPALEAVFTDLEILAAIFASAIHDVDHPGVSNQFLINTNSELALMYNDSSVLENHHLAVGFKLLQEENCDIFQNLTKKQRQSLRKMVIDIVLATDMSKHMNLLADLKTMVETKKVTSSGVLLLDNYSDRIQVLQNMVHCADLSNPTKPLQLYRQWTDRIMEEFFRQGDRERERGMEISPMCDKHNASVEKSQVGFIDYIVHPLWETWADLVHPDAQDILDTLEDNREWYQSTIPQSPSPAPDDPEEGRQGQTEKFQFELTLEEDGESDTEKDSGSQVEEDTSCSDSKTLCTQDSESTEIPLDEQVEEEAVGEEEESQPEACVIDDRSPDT
T2 sequence (Q07343 with tags, fused parts or gaps isoform Q07343-2): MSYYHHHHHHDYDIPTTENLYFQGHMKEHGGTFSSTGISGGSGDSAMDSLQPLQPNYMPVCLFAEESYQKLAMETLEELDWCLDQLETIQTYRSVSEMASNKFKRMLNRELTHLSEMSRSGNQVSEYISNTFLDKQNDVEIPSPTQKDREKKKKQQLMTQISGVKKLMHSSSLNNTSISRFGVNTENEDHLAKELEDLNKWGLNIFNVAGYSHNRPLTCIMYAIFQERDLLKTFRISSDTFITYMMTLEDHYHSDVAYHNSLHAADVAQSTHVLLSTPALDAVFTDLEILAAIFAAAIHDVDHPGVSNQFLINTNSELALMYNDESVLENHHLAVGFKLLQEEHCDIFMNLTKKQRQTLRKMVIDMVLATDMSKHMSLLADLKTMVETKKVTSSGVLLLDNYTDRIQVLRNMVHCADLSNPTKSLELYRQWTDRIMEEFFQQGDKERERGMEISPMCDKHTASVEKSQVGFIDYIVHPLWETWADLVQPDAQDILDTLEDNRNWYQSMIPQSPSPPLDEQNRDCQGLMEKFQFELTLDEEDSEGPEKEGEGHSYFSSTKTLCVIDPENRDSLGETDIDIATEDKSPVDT
T3 sequence (Q08499 380-756): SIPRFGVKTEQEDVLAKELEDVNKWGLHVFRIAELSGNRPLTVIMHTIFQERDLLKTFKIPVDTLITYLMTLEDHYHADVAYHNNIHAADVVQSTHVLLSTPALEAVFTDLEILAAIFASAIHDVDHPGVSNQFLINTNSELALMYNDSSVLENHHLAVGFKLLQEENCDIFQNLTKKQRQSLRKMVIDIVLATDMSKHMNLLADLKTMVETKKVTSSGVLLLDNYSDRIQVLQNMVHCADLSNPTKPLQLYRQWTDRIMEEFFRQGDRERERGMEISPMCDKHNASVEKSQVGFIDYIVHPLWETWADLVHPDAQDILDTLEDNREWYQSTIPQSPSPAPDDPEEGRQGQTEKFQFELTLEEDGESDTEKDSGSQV
T1 sequence (Q07343 324-700): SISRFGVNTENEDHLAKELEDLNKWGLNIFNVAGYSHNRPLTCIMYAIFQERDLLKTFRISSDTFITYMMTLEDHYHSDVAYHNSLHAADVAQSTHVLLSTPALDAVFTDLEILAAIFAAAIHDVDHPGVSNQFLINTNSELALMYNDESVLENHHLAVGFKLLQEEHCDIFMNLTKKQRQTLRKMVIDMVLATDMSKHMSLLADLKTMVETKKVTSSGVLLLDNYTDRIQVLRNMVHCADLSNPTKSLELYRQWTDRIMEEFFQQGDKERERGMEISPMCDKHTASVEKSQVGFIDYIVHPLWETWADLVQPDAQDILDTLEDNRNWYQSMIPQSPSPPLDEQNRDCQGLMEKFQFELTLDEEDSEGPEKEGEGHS

SMILES: COc1ccc(-c2cn(C(=O)c3ccc(F)c4ccccc34)c3ncccc23)cc1OC [Compound 64, [3-(3,4-Dimethoxy-phenyl)-pyrrolo[2,3-b]pyridin-1-yl]-(4-fluoro-naphthalen-1-yl)-methanone]
- pIC50 [1]: > 5.00
- pIC50 [2]: > 5.00
- pIC50 [3]: ≥ 5.00
- pIC50 [4]: > 5.00
- pIC50 [5]: ≥ 5.00

SMILES: COc1ccc(-c2cn(C(=O)c3cccc4c(OC)cccc34)c3ncccc23)cc1OC [Compound 65, [3-(3,4-Dimethoxy-phenyl)-pyrrolo[2,3-b]pyridin-1-yl]-(5-methoxynaphthalen-1-yl)-methanone]
- pIC50 [1]: > 5.00
- pIC50 [2]: > 5.00
- pIC50 [3]: ≥ 5.00
- pIC50 [4]: > 5.00
- pIC50 [5]: ≥ 5.00

SMILES: COc1ccc(-c2cn(C(=O)c3cccc4cccnc34)c3ncccc23)cc1OC [Compound 66]
- pIC50 [1]: > 5.00
- pIC50 [2]: > 5.00
- pIC50 [3]: ≥ 5.00
- pIC50 [4]: > 5.00
- pIC50 [5]: ≥ 5.00

SMILES: COc1ccc(-c2cn(S(=O)(=O)c3ccc(-c4ccncc4C)cc3)c3ncccc23)cc1OC [Compound 69, 3-(3,4-Dimethoxy-phenyl)-1-[4-(3-methyl-pyridin-4-yl)-benzenesulfonyl]-1H-pyrrolo[2,3-b]pyridine]
- pIC50 [1]: > 5.00
- pIC50 [2]: > 5.00
- pIC50 [3]: ≥ 5.00
- pIC50 [4]: > 5.00
- pIC50 [5]: ≥ 5.00

SMILES: COc1ccc(-c2c[nH]c3ncccc23)cc1OC1CCCC1 [Compound 88, 3-(3-Cyclopentyloxy-4-methoxy-phenyl)-1H-pyrrolo[2,3-b]pyridine]
- pIC50 [1]: > 5.00
- pIC50 [2]: > 5.00
- pIC50 [3]: ≥ 5.00
- pIC50 [4]: > 5.00
- pIC50 [5]: ≥ 5.00

SMILES: COc1ccc(-c2cn(S(=O)(=O)c3cccc4cc(C)cnc34)c3ccc(Cl)cc23)cc1OC1CCCC1 [Compound 95, 8-[5-Chloro-3-(3-cyclopentyloxy-4-methoxy-phenyl)-indole-1-sulfonyl]-3-methyl-quinoline]
- pIC50 [1]: > 5.00
- pIC50 [2]: > 5.00
- pIC50 [3]: ≥ 5.00
- pIC50 [4]: > 5.00
- pIC50 [5]: ≥ 5.00

SMILES: COc1ccc(-c2cn(S(=O)(=O)c3cccc4cc(C)cnc34)c3ccc(Cl)cc23)cc1OC [Compound 96, 8-[5-Chloro-3-(3,4-Dimethoxy-phenyl)-indole-1-sulfonyl]-3-methyl-quinoline]
- pIC50 [1]: > 5.00
- pIC50 [2]: > 5.00
- pIC50 [3]: ≥ 5.00
- pIC50 [4]: > 5.00
- pIC50 [5]: ≥ 5.00

SMILES: COc1ccc(-c2cn(S(=O)(=O)c3cccc4cccnc34)c3ccccc23)cc1OC1CCCC1 [Compound 100, 8-[3-(3-Cyclopentyloxy-4-methoxy-phenyl)-indole-1-sulfonyl]-quinoline]
- pIC50 [1]: > 5.00
- pIC50 [2]: > 5.00
- pIC50 [3]: ≥ 5.00
- pIC50 [4]: > 5.00
- pIC50 [5]: ≥ 5.00

SMILES: COc1ccc(-c2cn(S(=O)(=O)c3ccccc3)c3ncccc23)cc1OC1CCCC1 [Compound 101, 1-Benzenesulfonyl-3-(3-cyclopentyloxy-4-methoxy-phenyl)-1H-pyrrolo[2,3-b]pyridine]
- pIC50 [1]: > 5.00
- pIC50 [2]: > 5.00
- pIC50 [3]: ≥ 5.00
- pIC50 [4]: > 5.00
- pIC50 [5]: ≥ 5.00

SMILES: COc1ccc(-c2cn(S(=O)(=O)c3cccc4cccnc34)c3ncccc23)cc1OC1CCCC1 [Compound 102, 8-[3-(3-Cyclopentyloxy-4-methoxy-phenyl)-pyrrolo[2,3-b]pyridine-1-sulfonyl]-quinoline]
- pIC50 [1]: > 5.00
- pIC50 [2]: > 5.00
- pIC50 [3]: ≥ 5.00
- pIC50 [4]: > 5.00
- pIC50 [5]: ≥ 5.00

SMILES: COc1ccc(-c2cn(C(=O)c3ccc(N(C)C)c4ccccc34)c3ncccc23)cc1OC [Compound 109, [3-(3,4-Dimethoxy-phenyl)-pyrrolo[2,3-b]pyridin-1-yl]-(4-dimethylamino-naphthalen-1-yl)-methanone]
- pIC50 [1]: > 5.00
- pIC50 [2]: > 5.00
- pIC50 [3]: ≥ 5.00
- pIC50 [4]: > 5.00
- pIC50 [5]: ≥ 5.00

SMILES: COc1ccc(-c2cn(C(=O)c3c(OCC(F)(F)F)ccc4ccccc34)c3ncccc23)cc1OC [Compound 112, [3-(3,4-Dimethoxy-phenyl)-pyrrolo[2,3-b]pyridin-1-yl]-[2-(2,2,2-trifluoro-ethoxy)-naphthalen-1-yl]-methanone]
- pIC50 [2]: > 5.00
- pIC50 [4]: > 5.00
- inhibition in vivo at 3 mg/kg [6]: ≥ 20%

SMILES: CCCOc1ccccc1C(=O)n1cc(-c2ccc(OC)c(OC)c2)c2cccnc21 [Compound 113, [3-(3,4-Dimethoxy-phenyl)-pyrrolo[2,3-b]pyridin-1-yl]-(2-propoxy-phenyl)-methanone]
- pIC50 [1]: > 5.00
- pIC50 [2]: > 5.00
- pIC50 [3]: ≥ 5.00
- pIC50 [4]: > 5.00
- pIC50 [5]: ≥ 5.00

SMILES: COc1ccc(-c2cn(C(=O)c3ccnc4ccccc34)c3ncccc23)cc1OC [Compound 115, [3-(3,4-Dimethoxy-phenyl)-pyrrolo[2,3-b]pyridin-1-yl]-quinolin-4-yl-methanone]
- pIC50 [1]: > 5.00
- pIC50 [2]: > 5.00
- pIC50 [3]: ≥ 5.00
- pIC50 [4]: > 5.00
- pIC50 [5]: ≥ 5.00

SMILES: COc1ccc(-c2cn(C(=O)c3cc(C)nc4ccccc34)c3ncccc23)cc1OC [Compound 116, [3-(3,4-Dimethoxy-phenyl)-pyrrolo[2,3-b]pyridin-1-yl]-(2-methyl-quinolin-4-yl)-methanone]
- pIC50 [1]: > 5.00
- pIC50 [2]: > 5.00
- pIC50 [3]: ≥ 5.00
- pIC50 [4]: > 5.00
- pIC50 [5]: ≥ 5.00

SMILES: CCOc1cc(N)ccc1C(=O)n1cc(-c2ccc(OC)c(OC)c2)c2cccnc21 [Compound 144, (4-Amino-2-ethoxy-phenyl)-[3-(3,4-dimethoxy-phenyl)-pyrrolo[2,3-b]pyridin-1-yl]-methanone]
- pIC50 [1]: > 5.00
- pIC50 [2]: > 5.00
- pIC50 [3]: ≥ 5.00
- pIC50 [4]: > 5.00
- pIC50 [5]: ≥ 5.00

SMILES: CCOc1cc(NS(C)(=O)=O)ccc1C(=O)n1cc(-c2ccc(OC)c(OC)c2)c2cccnc21 [Compound 145, N-{4-[3-(3,4-Dimethoxy-phenyl)-pyrrolo[2,3-b]pyridine-1-carbonyl]-3-ethoxy-phenyl}-methanesulfonamide]
- pIC50 [1]: > 5.00
- pIC50 [2]: > 5.00
- pIC50 [3]: ≥ 5.00
- pIC50 [4]: > 5.00
- pIC50 [5]: ≥ 5.00
